The text below walks through data of ChEMBL document CHEMBL3120164, “1,2,3,4-Tetrahydrobenzo[h][1,6]naphthyridines as a new family of potent peripheral-to-midgorge-site inhibitors of acetylcholinesterase: synthesis, pharmacological evaluation and mechanistic studies” (Eur J Med Chem, 2014).

Broadly, the inhibition is the share of the control response that was lost under treatment. A word on the IC50: it is the point on the concentration scale where inhibition reaches its midpoint. What is called Papp is the rate of passage across a membrane or cell layer, normalised by area and donor concentration. Low values mean slow passage, high ones fast passage. Broadly, the Kd is the concentration at which binding is half-saturated. In general, Ki refers to the dissociation constant of the complex between target and ligand, obtained from inhibition or displacement.

SMILES strings stand for the structures. Activity calls are given as the source filed them. No cut-off for these calls is given here.

For data set [1], the target named is Amyloid-beta precursor protein (Homo sapiens) (UniProt P05067). Description: Inhibition of amyloid beta (1 to 42) aggregation (unknown origin) at 10 uM relative to control.
Amyloid-beta precursor protein (Homo sapiens), sequence (P05067 whole entry): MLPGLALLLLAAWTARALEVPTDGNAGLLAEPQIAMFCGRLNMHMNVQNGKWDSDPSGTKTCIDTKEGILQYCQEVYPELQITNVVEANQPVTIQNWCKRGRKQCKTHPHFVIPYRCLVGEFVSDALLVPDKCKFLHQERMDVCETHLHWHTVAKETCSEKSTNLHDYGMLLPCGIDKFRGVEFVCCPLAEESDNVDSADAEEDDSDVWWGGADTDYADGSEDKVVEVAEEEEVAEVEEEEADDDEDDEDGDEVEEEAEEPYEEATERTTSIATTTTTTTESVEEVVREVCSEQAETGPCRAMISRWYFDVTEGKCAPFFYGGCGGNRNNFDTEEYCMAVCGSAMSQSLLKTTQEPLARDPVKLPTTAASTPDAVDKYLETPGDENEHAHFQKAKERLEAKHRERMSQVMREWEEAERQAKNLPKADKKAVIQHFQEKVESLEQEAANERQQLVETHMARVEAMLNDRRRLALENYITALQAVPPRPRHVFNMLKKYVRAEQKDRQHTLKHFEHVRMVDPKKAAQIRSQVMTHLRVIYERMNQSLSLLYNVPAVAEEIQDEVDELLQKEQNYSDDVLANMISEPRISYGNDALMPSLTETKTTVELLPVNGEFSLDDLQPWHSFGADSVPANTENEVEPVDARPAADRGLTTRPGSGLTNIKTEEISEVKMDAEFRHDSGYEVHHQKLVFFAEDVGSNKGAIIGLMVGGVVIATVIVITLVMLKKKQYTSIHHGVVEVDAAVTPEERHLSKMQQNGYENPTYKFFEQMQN
The target of data set [2] is T1, Cholinesterase (Homo sapiens, UniProt P06276). Description: Inhibition of human serum BChE using butyrylthiocholine iodide as substrate at 30 uM preincubated for 20 mins followed by substrate addition measured after 5 mins by Ellman's method relative to control. For orientation: Ellman's reagent forms a yellow product with free thiols.
T1 sequence (P06276 whole entry): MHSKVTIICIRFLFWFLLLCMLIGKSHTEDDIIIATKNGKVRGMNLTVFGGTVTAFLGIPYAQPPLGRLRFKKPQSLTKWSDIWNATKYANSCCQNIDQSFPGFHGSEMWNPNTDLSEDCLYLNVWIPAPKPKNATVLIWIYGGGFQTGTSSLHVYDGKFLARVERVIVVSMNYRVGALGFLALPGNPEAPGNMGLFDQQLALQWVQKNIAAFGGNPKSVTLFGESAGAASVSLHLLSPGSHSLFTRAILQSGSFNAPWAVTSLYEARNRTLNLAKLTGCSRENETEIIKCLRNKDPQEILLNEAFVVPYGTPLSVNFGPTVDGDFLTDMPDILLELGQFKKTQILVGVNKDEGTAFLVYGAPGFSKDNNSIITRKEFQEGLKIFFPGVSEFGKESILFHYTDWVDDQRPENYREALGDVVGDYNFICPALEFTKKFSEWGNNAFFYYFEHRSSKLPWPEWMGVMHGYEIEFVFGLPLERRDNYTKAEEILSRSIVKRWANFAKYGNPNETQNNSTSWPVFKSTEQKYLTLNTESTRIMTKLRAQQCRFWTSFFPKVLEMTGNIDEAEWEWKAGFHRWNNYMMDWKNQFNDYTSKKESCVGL
For data set [3], the target named is T2, Acetylcholinesterase (Homo sapiens, UniProt P22303). In words: Inhibition of human recombinant AChE using acetylthiocholine iodide as substrate at 25 uM preincubated for 20 mins followed by substrate addition by Ellman's method relative to control.
T2 sequence (P22303 whole entry): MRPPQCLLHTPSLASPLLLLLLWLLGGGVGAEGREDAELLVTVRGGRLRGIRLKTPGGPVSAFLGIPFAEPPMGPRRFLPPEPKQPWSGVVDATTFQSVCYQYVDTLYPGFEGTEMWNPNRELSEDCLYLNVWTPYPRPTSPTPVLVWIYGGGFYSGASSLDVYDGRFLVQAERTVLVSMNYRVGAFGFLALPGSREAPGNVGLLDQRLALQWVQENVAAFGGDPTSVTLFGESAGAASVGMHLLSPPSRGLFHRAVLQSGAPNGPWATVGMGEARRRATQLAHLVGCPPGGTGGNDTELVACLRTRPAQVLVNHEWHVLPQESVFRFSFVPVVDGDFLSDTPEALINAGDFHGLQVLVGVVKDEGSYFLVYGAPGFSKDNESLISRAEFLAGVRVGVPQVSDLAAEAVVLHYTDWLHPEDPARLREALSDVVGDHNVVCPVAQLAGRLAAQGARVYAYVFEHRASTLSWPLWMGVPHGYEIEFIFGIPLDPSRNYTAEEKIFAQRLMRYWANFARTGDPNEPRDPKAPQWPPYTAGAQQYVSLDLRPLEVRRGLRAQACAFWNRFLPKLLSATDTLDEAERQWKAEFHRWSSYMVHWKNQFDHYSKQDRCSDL
Data set [4] addresses T2, Acetylcholinesterase. Description: Inhibition of human recombinant AChE using acetylthiocholine iodide as substrate preincubated for 20 mins followed by substrate addition by Ellman's method.
Data set [5] addresses T3, Acetylcholinesterase (Electrophorus electricus, UniProt O42275).
Description: Inhibition of electric eel AChE using acetylthiocholine iodide as substrate preincubated for 20 mins followed by substrate addition measured after 5 mins by Ellman's method
The nature of data set [6]: in vitro. As to conditions: PAMPA.
Description: Permeability of the compound by BBB-PAMPA
Data set [7] deals with Acetylcholinesterase (Electrophorus electricus) (UniProt O42275). Description: Binding affinity to electric eel AChE peripheral anionic site assessed as concentration required for decreasing initial fluorescence intensity of AChE-propidium complex by spectrofluorometric analysis.
Acetylcholinesterase (Electrophorus electricus), sequence (O42275 24-633 limits assumed): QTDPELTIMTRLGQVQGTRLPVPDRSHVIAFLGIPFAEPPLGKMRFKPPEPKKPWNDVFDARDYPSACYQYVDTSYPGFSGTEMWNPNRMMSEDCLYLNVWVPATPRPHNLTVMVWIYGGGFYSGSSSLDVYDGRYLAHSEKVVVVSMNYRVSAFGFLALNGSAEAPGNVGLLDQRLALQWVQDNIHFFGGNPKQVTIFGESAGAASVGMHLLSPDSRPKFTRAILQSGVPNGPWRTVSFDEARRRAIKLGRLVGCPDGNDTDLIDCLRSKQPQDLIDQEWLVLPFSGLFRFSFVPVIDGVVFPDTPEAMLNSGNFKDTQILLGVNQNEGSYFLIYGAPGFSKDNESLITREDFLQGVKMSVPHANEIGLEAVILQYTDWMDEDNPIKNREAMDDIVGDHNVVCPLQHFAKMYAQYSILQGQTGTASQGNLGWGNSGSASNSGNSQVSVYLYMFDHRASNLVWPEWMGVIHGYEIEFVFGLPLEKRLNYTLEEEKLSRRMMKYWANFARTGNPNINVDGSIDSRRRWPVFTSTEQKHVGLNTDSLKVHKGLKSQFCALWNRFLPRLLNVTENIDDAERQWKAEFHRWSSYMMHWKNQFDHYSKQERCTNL
Data set [8] shares this target. Description: (§1) Displacement of propidium from electric eel AChE peripheral anionic site assessed as decrease in fluorescence intensity by spectrofluorometric analysis.
Data set [9] deals with T3, Acetylcholinesterase. Described as §1.
Data set [10] concerns the target Acetylcholinesterase (Electrophorus electricus) (UniProt O42275). Description: Displacement of propidium from electric eel AChE peripheral anionic site assessed as decrease in fluorescence intensity at 1/1 propidium to compound ratio by spectrofluorometric analysis relative to control. As to conditions: concentration not given here.
Data set [11] addresses T2, Acetylcholinesterase. Description: Mixed-type inhibition of human recombinant AChE using acetylthiocholine iodide as substrate by Cornish-Bowden plot analysis.
For data set [12], the target named is T2, Acetylcholinesterase. Description: Mixed-type inhibition of human recombinant AChE using acetylthiocholine iodide as substrate assessed as enzyme-substrate-inhibitor complex by Lineweaver-Burk plot analysis.
Data set [13] addresses T2, Acetylcholinesterase. Description: Mixed-type inhibition of human recombinant AChE using acetylthiocholine iodide as substrate assessed as enzyme-inhibitor complex by Lineweaver-Burk plot analysis.
Data set [14] concerns the target Acetylcholinesterase (Electrophorus electricus) (UniProt O42275). In words: Inhibition of electric eel AChE using acetylthiocholine iodide as substrate at 30 uM preincubated for 20 mins followed by substrate addition measured after 5 mins by Ellman's method relative to control.
Data set [15] deals with T1, Cholinesterase. Description: Inhibition of human serum BChE using butyrylthiocholine iodide as substrate preincubated for 20 mins followed by substrate addition measured after 5 mins by Ellman's method.
Data set [16] addresses T2, Acetylcholinesterase. In words: Ratio of tacrine IC50 to compound IC50 for human recombinant AChE.
The target in data set [17] is T2, Acetylcholinesterase. In words: Ratio of propidium IC50 to compound IC50 for human recombinant AChE.

T3 sequence (O42275 whole entry): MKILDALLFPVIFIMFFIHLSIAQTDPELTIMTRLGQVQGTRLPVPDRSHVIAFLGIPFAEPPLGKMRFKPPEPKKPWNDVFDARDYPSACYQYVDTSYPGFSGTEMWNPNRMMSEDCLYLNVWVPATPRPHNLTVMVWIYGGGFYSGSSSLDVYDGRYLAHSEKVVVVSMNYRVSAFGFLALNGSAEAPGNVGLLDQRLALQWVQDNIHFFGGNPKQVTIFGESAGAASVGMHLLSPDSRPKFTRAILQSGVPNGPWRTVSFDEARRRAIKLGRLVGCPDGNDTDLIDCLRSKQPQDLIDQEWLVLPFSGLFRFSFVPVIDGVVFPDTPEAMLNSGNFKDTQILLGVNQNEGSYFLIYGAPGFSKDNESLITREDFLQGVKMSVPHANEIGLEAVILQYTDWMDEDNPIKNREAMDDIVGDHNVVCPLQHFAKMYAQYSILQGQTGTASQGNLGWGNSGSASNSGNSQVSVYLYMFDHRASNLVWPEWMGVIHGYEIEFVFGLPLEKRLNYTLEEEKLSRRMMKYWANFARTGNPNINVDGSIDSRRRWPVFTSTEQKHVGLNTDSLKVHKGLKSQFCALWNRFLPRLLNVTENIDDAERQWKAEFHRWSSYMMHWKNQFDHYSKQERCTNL

Consider `CCOC(=O)c1ccc2nc(-c3ccc(C(=O)OC)cc3)c3c(c2c1)N(Cc1ccccc1)C(=O)CC3`, for which the inhibition in [1] is less than 16%; in data set [2], 5.54%; in data set [3] it was 13.8%. For the same compound, the IC50 in [4] was greater than 25000 nM; in data set [5] it was 13600 nM. For the same compound, the Papp in data set [6] worked out at 16.8 ×10⁻⁶ cm/s.

Consider `CCOC(=O)c1ccc2nc(-c3cccnc3)c3c(c2c1)NCCC3`, for which the inhibition in [1] was less than 16%; in data set [2], 27.5%. Moreover, the half-inhibitory concentration (IC50) is 22800 nM in [4] and 148 nM in data set [5]. For the same compound, the Papp in [6] was determined as 14.6 ×10⁻⁶ cm/s.

Consider `CCOC(=O)c1ccc2nc(-c3ccc(Cl)cc3)c3c(c2c1)N(Cc1ccccc1)C(=O)CC3`, for which the inhibition was less than 16% in data set [1] and 8.41% in data set [2]. Moreover, the IC50 was found to be 4150 nM in data set [4] and 5210 nM in [5]. This compound also gave a Papp in data set [6] of 13.3 ×10⁻⁶ cm/s.

Regarding `CCOC(=O)c1ccc2nc(-c3ccc(Cl)cc3)c3c(c2c1)N(Cc1ccccc1)CCC3`, the inhibition was less than 16% in data set [1], 8.68% in data set [2] and 10% in data set [3]. The IC50 in data set [4] is greater than 25000 nM; in [5] it was 6330 nM. In addition, in data set [6], the Papp was 8.1 ×10⁻⁶ cm/s.

For the compound `CCNCc1ccc2nc(-c3ccc(Cl)cc3)c3c(c2c1)N(Cc1ccccc1)CCC3`, in data set [7], the Activity was 33 µM. Besides, the values for the inhibition result in data set [8] and in [1] were “Dose-dependent effect” and less than 16%, respectively. For the same compound, in data set [9], the Kd turned out to be 3200 nM. The IC50 in data set [4] amounted to 942 nM; in [5], 147 nM.

Take `CCOC(=O)c1ccc2nc(-c3ccc(Cl)cc3)c3c(c2c1)NCCC3`: the inhibition was less than 16% in data set [1], 20.3% in data set [2] and 17.8% in data set [3]. In addition, the values for the IC50 in [4] and in data set [5] were greater than 25000 nM and 281 nM, respectively. Besides, the Papp in data set [6] worked out at 9.7 ×10⁻⁶ cm/s.

In [6], `CN1C(C(=O)Nc2ccccn2)=C(O)c2ccccc2S1(=O)=O` [PIROXICAM] had a Papp of 1.71 ×10⁻⁶ cm/s.

For `CCNC(=O)c1ccc2nc(-c3ccc(Cl)cc3)c3c(c2c1)N(Cc1ccccc1)CCC3`, the inhibition was 5% in data set [10], less than 16% in data set [1] and 25.3% in data set [2]. Also, the inhibition entry in data set [11] is “Active”. Further, the Ki in [12] is 2340 nM; in [13], 785 nM. In addition, the IC50 in data set [4] stood at 801 nM; in [5] it was 5480 nM. For the same compound, in data set [6], the Papp was determined as 7.7 ×10⁻⁶ cm/s.

In the case of `CCOC(=O)c1ccc2nc(-c3cccnc3)c3c(c2c1)N(Cc1ccccc1)CCC3`, the inhibition in data set [1] was less than 16%. Also, the IC50 in [4] came out at 1060 nM; in data set [5] it was 1970 nM.

For the compound `CCOC(=O)c1ccc2nc(-c3ccc(Cl)cc3)c3c(c2c1)N(Cc1ccc(OC)cc1)CCC3`, the inhibition was less than 16% in data set [1], 12.4% in data set [2], 10.2% in [3] and 33.7% in data set [14]. Further, the results for the IC50 in data set [4] and in data set [5] were greater than 25000 nM and greater than 30000 nM, respectively. This compound also gave a Papp in data set [6] of 26 ×10⁻⁶ cm/s.

For `CCn1cc(C(=O)O)c(=O)c2cc(F)c(N3CCNC(C)C3)c(F)c21` (stereo not drawn) [LOMEFLOXACIN], the Papp in [6] was 0.75 ×10⁻⁶ cm/s.

In the case of `CCNCc1ccc2nc(-c3ccc(Cl)cc3)c3c(c2c1)NCCC3`, the Activity in data set [7] came to 23 µM. Also, the inhibition result in [8] was “Dose-dependent effect”; in [1] it was less than 16%. Also, the Kd in data set [9] was 2180 nM. The results for the IC50 in data set [15], in data set [4] and in [5] were 1370 nM, 556 nM and 532 nM, respectively. Also, the Papp in [6] worked out at 5.6 ×10⁻⁶ cm/s.

For the compound `CCNCc1ccc2nc(-c3cccnc3)c3c(c2c1)NCCC3`, the inhibition in data set [1] is less than 16%. The results for the IC50 in [15], in data set [4] and in data set [5] were 2590 nM, 15800 nM and 2150 nM, respectively. The same compound gave a Papp in [6] of 2.4 ×10⁻⁶ cm/s.

`CCOC(=O)c1ccc2nc(-c3ccc(C(=O)OC)cc3)c3c(c2c1)N(Cc1ccccc1)CCC3`: the inhibition in data set [1] was less than 16%; in data set [2], 6.61%; in [3], 15.7%. The results for the IC50 in [4] and in data set [5] were greater than 25000 nM and 6620 nM, respectively. The compound also had a Papp in data set [6] of 9.5 ×10⁻⁶ cm/s.

On to `CCOC(=O)c1ccc2nc(-c3cccnc3)c3c(c2c1)N(Cc1ccccc1)C(=O)CC3`, for which the inhibition in data set [1] is less than 16%; in [2] it was 4.42%; in [14], 43.7%. Besides, the IC50 is 13000 nM in data set [4] and greater than 30000 nM in [5]. Besides, the Papp in [6] was determined as 12.2 ×10⁻⁶ cm/s.

On to `CCNC(=O)c1ccc2nc(-c3ccc(Cl)cc3)c3c(c2c1)NCCC3`, for which, in data set [7], the Activity turned out to be 13 µM. For the same compound, the inhibition result in data set [8] was “Dose-dependent effect”; in data set [1], less than 16%. The Kd in data set [9] was 1760 nM. In addition, the inhibition result in data set [11] was “Active”. Moreover, the Ki in data set [12] is 73 nM; in [13] it was 65 nM. In addition, the Ratio IC50 is 6 in data set [16] and 500 in [17]. Moreover, the IC50 in data set [15] is 920 nM; in data set [4], 65 nM; in data set [5], 46 nM. The compound also showed a Papp in data set [6] of 22.9 ×10⁻⁶ cm/s.
